O=[N+]([O-])c1cc([N+](=O)[O-])c(Cl)c(Cl)c1Cl
solubility (mole fraction)
Conditions | 278.15 K | 283.15 K | 288.15 K | 293.15 K | 298.15 K | 303.15 K | 308.15 K | 313.15 K | 318.15 K | 323.15 K
in 1,2-dichloroethane | 0.06 | 0.0736 | 0.0895 | 0.108 | 0.13 | 0.155 | 0.185 | 0.219 | 0.258 | 0.301
in DMF | 0.194 | 0.211 | 0.23 | 0.251 | 0.274 | 0.298 | 0.324 | 0.352 | 0.384 | 0.419
in DMSO | – | – | – | 0.238 | 0.262 | 0.287 | 0.315 | 0.345 | 0.378 | 0.412
in NMP | 0.278 | 0.291 | 0.305 | 0.321 | 0.338 | 0.357 | 0.377 | 0.4 | 0.425 | 0.454
in acetone | 0.109 | 0.124 | 0.141 | 0.16 | 0.181 | 0.204 | 0.229 | 0.257 | 0.289 | 0.323
in acetonitrile | 0.0401 | 0.0511 | 0.0644 | 0.0806 | 0.1 | 0.123 | 0.15 | 0.183 | 0.22 | 0.265
in chloroform | 0.0536 | 0.066 | 0.0807 | 0.0982 | 0.118 | 0.141 | 0.169 | 0.201 | 0.237 | 0.279
in dichloromethane | 0.0689 | 0.0822 | 0.0975 | 0.116 | 0.135 | 0.159 | 0.185 | – | – | –
in ethanol | 0.00235 | 0.00301 | 0.00382 | 0.00483 | 0.00611 | 0.00765 | 0.00957 | 0.0118 | 0.0146 | 0.0182
in ethyl acetate | 0.097 | 0.111 | 0.128 | 0.146 | 0.167 | 0.191 | 0.217 | 0.245 | 0.279 | 0.314
in isopropanol | 0.000879 | 0.00125 | 0.00174 | 0.00241 | 0.00333 | 0.00451 | 0.00603 | 0.00807 | 0.0107 | 0.0142
in methanol | 0.00262 | 0.0033 | 0.00414 | 0.00519 | 0.00648 | 0.00806 | 0.00985 | 0.0121 | 0.0149 | 0.0182
in n-butanol | 0.00175 | 0.00238 | 0.0032 | 0.00428 | 0.00565 | 0.00752 | 0.00967 | 0.0126 | 0.0164 | 0.021
in tetrachloromethane | 0.00374 | 0.00582 | 0.00891 | 0.0134 | 0.0201 | 0.0296 | 0.0425 | 0.0609 | 0.0864 | 0.12
in toluene | 0.14 | 0.159 | 0.18 | 0.204 | 0.23 | 0.258 | 0.289 | 0.323 | 0.36 | 0.4
